Where two headings read alike, the source gives them in different places. Non-standard residues stand in square brackets, D forms with d. Residues, ends and D or L forms follow the SMILES beside them. *: point of attachment. Dolaproine = CO[C@@H]([C@@H]1CCCN1)[C@@H](C)C(=O)O; Dil = CC[C@H](C)[C@H](NC)[C@@H](CC(=O)O)OC; X1 = C[C@@H](N*)[C@@H](O)c1ccccc1; NMeV = CN[C@H](C(=O)O)C(C)C
What was measured:
Type in all cases: cell-based
[1] = tested on: FaDu (human throat cancer cell); experiment: Tumor cell proliferation inhibition, FaDu
Description: (§1) 1) ErbB2/HER2-positive human breast cancer cells BT-474, ErbB2/HER2-positive human gastric cancer cells NCI-N87 and ErbB2/HER2-negative human liver cancer cells HepG2 were inoculated into a 96-well cell plate at 100 μL/well (1000 to 10000 cells), and incubated overnight in a cell incubator under the conditions of 37° C., 5% CO2, 95% air and 100% humidity.
(§2) 3) The cell plate was removed from the 37° C. cell incubator, and equilibrated for about 30 min to rt. 100 μL of CellTiter Glo reagent was added into each well, a shaker shook for 2 min, followed by standing in a dark place at rt for 10 min, and the relative light unit (RLU) was measured with a Cytation 3 microplate reader.
(§3) For example, BxPC-3, FaDu, HepG2 and other human tumor cells were selected.
(§4) For example, TROP2-positive human tumor cells such as BxPC-3 (human pancreatic cancer cell) and FaDu (human throat cancer cell), and TROP2-negative tumor cells such as HepG2 (human liver cancer cell) were selected.

[2] = tested on: human liver cancer cells HepG2; experiment: Tumor cell proliferation inhibition (CellTiter Glo), HepG2
Description: as §1, §2, §3, §4

[3] = tested on: BxPC-3 (human pancreatic cancer cell); experiment: Tumor cell proliferation inhibition, BxPC-3
Description: as §1, §2, §3, §4

[4] = tested on: ErbB2/HER2-positive human gastric cancer cells NCI-N87; experiment: Tumor cell proliferation inhibition (CellTiter Glo), NCI-N87
Description: as §1, §2

[5] = tested on: ErbB2/HER2-positive human breast cancer cells BT-474; experiment: Tumor cell proliferation inhibition (CellTiter Glo), BT-474
Description: as §1, §2

CC[C@H](C)[C@@H]([C@@H](CC(=O)N1CCC[C@H]1[C@H](OC)[C@@H](C)C(=O)N[C@H](C)[C@@H](O)c1ccccc1)OC)N(C)C(=O)[C@@H](NC(=O)[C@@H](NC)C(C)C)C(C)C [MMAE, monomethylauristatin E] (H-[NMeV]V[Dil][Dolaproine]-X1)
maximum killing percentage relative to the control group [1]: 90.87%
IC50 ([1]; TROP2-positive, Table 7, read-out: Proliferation Inhibition Action on Tumor Cells (IC50)): 0.167 nM
IC50 ([2]; HepG2, ErbB2/HER2-negative, 72 to 120 h, read-out: Proliferation Inhibition Effect on Tumor Cells (IC50)): 0.567 nM
maximum killing percentage relative to the control group ([2]; HepG2, ErbB2/HER2-negative, control puromycin 5 μM): 74.88%
maximum killing percentage relative to the control group ([2]; HepG2, TROP2-negative): 83.43%
IC50 ([2]; HepG2, TROP2-negative, Table 7, read-out: Proliferation Inhibition Action on Tumor Cells (IC50)): 0.398 nM
maximum killing percentage relative to the control group ([3]; BxPC-3): 99.56%
IC50 ([3]; BxPC-3, TROP2-positive, Table 7, read-out: Proliferation Inhibition Action on Tumor Cells (IC50)): 0.388 nM
IC50 ([4]; NCI-N87, ErbB2/HER2-positive, 72 to 120 h, read-out: Proliferation Inhibition Effect on Tumor Cells (IC50)): 0.248 nM
maximum killing percentage relative to the control group ([4]; NCI-N87, control puromycin 5 μM): 90.78%
IC50 ([5]; BT-474, ErbB2/HER2-positive, 72 to 120 h, read-out: Proliferation Inhibition Effect on Tumor Cells (IC50)): 0.272 nM
maximum killing percentage relative to the control group ([5]; BT-474, control puromycin 5 μM): 86.46%

Source: patent US12318457B2, “Oligosaccharide linker, linker-payload comprising the same and glycan chain-remodeled antibody-drug conjugate, preparation methods and uses thereof” (GENEQUANTUM HEALTHCARE (SUZHOU) CO., LTD., priority 2022, dated 2025)
